According to patent publication US20250041309A1 (ZHENAO JINYINHUA PHARMACEUTICAL, priority 2021, published 2025):
Where a name gives a salt, the structure may show the parent alone.

Experiments:
[1] = pH measurement of Aildenafil salts dissolved in water; type: physicochemical; settings: for 2 mg/ml pH value: 2 mg/ml in water; for 10 mg/ml pH value: 10 mg/ml in water
[2] = Sterilization stability test of aqueous solutions (121° C., 30 minutes, HPLC relevant substances); settings: 0.5 mg/ml aqueous solution; for Conclusion (sterilization stability) / Relevant substances after sterilization: sterilized at 121° C. for 30 minutes
Description: They were sterilized in a 121° C. sterilizer for 30 minutes, and sampled before and after sterilization. The relevant substances were measured according to the following method:
Relevant substances: taking the samples and dissolving it in the mobile phase to prepare a solution containing 0.5 mg per 1 ml, which was used as the test solution; using octadecylsilane bonded silica gel as the filler, phosphate buffer (800 ml of water, 7 ml of triethylamine added, pH adjusted to 3.0 with phosphoric acid, diluted to 1000 ml with water)-methanol acetonitrile (58:25:17) as the mobile phase, with a detection wavelength of 290 nm.

[3] = Saturation solubility of Aildenafil salts in water at room temperature; type: physicochemical
[4] = test system: MCAO rats; experiment: Cerebral infarction range (TTC) in MCAO rats, oral administration (Example 23); type: in vivo, SD rats; settings: gavage 8 mg/kg*2, after 14 days
Description: Administration route: gavage administration;
Dosage: 8 mg/kg body weight, twice a day;
Administration time: gavage administration twice a day in the morning and evening (administered immediately after modeling).
A rat model of middle cerebral artery ischemia/reperfusion (MCAO/R) was created using suture-occluded method.
The successfully modeled rats were randomly divided into 4 groups based on their scores, with an average of 20 rats in each group.
At the end of the experiment, the brain tissue of the rats was collected by bloodletting and frozen in a −20° C. freezer, and then is sliced into a thickness of 2 mm per slice. The brain tissue slices were placed in a 2% red tetrazolium (TTC) solution and incubated at 37° C. for 5 minutes. The infarcted tissue appeared white, while the non-infarcted tissue appeared red. Image J software was used to measure the area of cerebral infarction and the percentage of infarct area to the total brain area was calculated.

[5] = test system: ischemic stroke model rats; experiment: Cerebral infarction range (TTC), ischemic stroke model rats, intravenous administration (Example 22); type: in vivo, SD rats; settings: 10 mg/kg iv qd 7 d
Description: (§1) On the day of the experiment, the rat was anesthetized with isoflurane gas and placed in a supine position for fixation. The skin was cut along the midline of the neck to expose the right common carotid artery. The nerves and fascia around the blood vessels from the common carotid artery bifurcation to the base of the skull were carefully removed, and the external and internal carotid arteries were separated sequentially. The MCAO suture was inserted from the free end of the external carotid artery, and the nylon suture was introduced into the internal carotid artery from the distal end of the external carotid artery. It was inserted into the Willis ring of the middle cerebral artery to effectively block the middle cerebral artery. The length of the inserted suture was 18-20 mm away from the bifurcation of the common carotid artery. Then the free end of the external carotid artery was ligated along with the endovascular suture to prevent bleeding. […] Animals were kept in cages. The animals successfully modeled were randomly divided into three groups based on their scores, namely the model control group, compound 1 AD group ([…] citrate group) 10 mg/kg, and compound 2 XD group (Sildenafil citrate group) 10 mg/kg, with 10 animals in each group. […] The endpoint of the experiment was 14 days after administration, and the dosage is detailed in the table below. This experiment was administered intravenously with a dosage of 10 mg/kg and a volume of 5 mL/kg, once per day for consecutive 7 days. At the end of the experiment, the brain tissue of the rats was collected by bloodletting and frozen in a -20° C. freezer, then are sliced with a thickness of 2 mm per slice. The brain tissue slices were placed in a 2% red tetrazolium (TTC) solution and incubated at 37° C. for 5 minutes. The infarcted tissue appeared white, while the non-infarcted tissue appeared red.

[6] = test system: ischemic stroke model rats; experiment: Neurological function (behavioral) score, ischemic stroke model rats, intravenous administration (Example 22); type: in vivo, SD rats; parameters: scale not given here; settings: 10 mg/kg iv qd 7 d, x ± s, n = 10
Description: as §1, with “cages. After 2 hours of embolization, then reperfusion, according to the scoring criteria in the attached table, the degree of neurological damage in the animals was scored using a blind method. Those with significant neurological deficits (>8 points) were considered successful in modeling. • ? Grouping and administration” for “cages.”, “Score before treatment, 3 days after treatment, 7 days after treatment,” for “At the end of the experiment, the brain tissue of the rats was collected by bloodletting”, “14 days after treatment.” for “frozen in a -20° C. freezer, then are sliced with a thickness of 2 mm per slice. The brain tissue slices were placed in a 2% red tetrazolium (TTC) solution and incubated at 37° C. for 5 minutes. The infarcted tissue appeared white, while the non-infarcted tissue appeared red.”

[7] = test system: MCAO rats; experiment: Forelimb placement test in MCAO rats, injection of Aildenafil phosphate (Example 24); type: in vivo; settings: x ± sD, n = 7
Description: (§2) • ? Animal selection: healthy SD rats were used as experimental animals. In order to eliminate the impact of individual animal variations on the results, 10 rats were used in each group. […] After 2 hours of cerebral ischemia-reperfusion, the drug was immediately injected into the tail vein for consecutive 7 days.
(§3) On the day of the experiment, the rat was anesthetized with isoflurane gas and fixed in a supine position. The skin was cut along the midline of the neck to expose the right arteriae carotis communis. The nerves and fascia around the blood vessels from the common carotid artery bifurcation to the base of the skull were carefully removed, and the external and internal carotid arteries were separated sequentially. A MCAO suture (250-280 g) was inserted from the free end of the external carotid artery, and the nylon suture was introduced into the internal carotid artery from the distal end of the external carotid artery. It was inserted into the middle cerebral artery in the Willis ring to effectively block the middle cerebral artery. The length of the inserted suture was 18-20 mm away from the bifurcation of the common carotid artery. Then the free end of the external carotid artery was ligated along with intracavity suture to prevent bleeding. The subcutaneous fascia and skin were sutured layer by layer, and penicillin was locally added dropwise to prevent infection. The Sham group only isolated the internal carotid artery. 2 hours after the start of MCAO, the suture was carefully removed from the lumen of the internal carotid artery to allow for reperfusion of the internal carotid artery. Animals were kept in cages. • ? Y Grouping and administration
(§4) The rats successfully modeled with a neurological function score of 8-12 were randomly divided into four groups based on the score: model control group, low-dose 2.5 mg/kg group of test drug, medium dose 5 mg/kg group of test drug, and high-dose 10 mg/kg group of test drug, with 7 rats in each group. […] Immediately after cerebral ischemia-reperfusion for 2 hours, the drug was administered via tail vein injection for consecutive 7 days. The endpoint of the experiment is 14 days after the first administration. Please see Table 7 for details.
(§5) Balance beam and forelimb placement tests were performed after 7 and 14 days administration, respectively.

[8] = test system: MCAO rats; experiment: Balance beam test in MCAO rats, injection of Aildenafil phosphate (Example 24); type: in vivo; settings: x ± sD, n = 7
Description: as §2, §3, §4, §5

[9] = test system: MCAO rats; experiment: Cerebral infarction range (TTC) in MCAO rats, injection of Aildenafil phosphate (Example 24); type: in vivo, SD rats; settings: 14 days; for Improvement rate % of cerebral infarction range: versus model control group; for Infarct size (%): x ± sD, n = 7
Description: as §2, §3, §4
After 14 days of medication, rats were anesthetized with isoflurane gas to collect blood and euthanized by cervical vertebrae dislocation. The brain tissue was taken and placed in a −20° C. freezer for freezing, and was sliced from front to back, each slice has a thickness of 2 mm. Brain tissue slices were incubated in a 2% red tetrazolium (TTC) solution at 37° C. for 5 minutes. […] Image J software was used to measure the area of cerebral infarction and the percentage of infarct area to the total brain area was calculated.

[10] = 5 mg/kg iv qd 7 d (medium dose)

For CCCc1nn(C)c2c(=O)[nH]c(-c3cc(S(=O)(=O)N4C[C@@H](C)N[C@@H](C)C4)ccc3OCC)nc12 [Aildenafil D-tartrate], the “2 mg/ml pH value” ([1]; listed as D-tartrate) was 3.84 and the “10 mg/ml pH value” ([1]; listed as D-tartrate) was 3.58.

For CCCc1nn(C)c2c(=O)[nH]c(-c3cc(S(=O)(=O)N4C[C@@H](C)N[C@@H](C)C4)ccc3OCC)nc12.O=C(O)C(O)C(O)C(=O)O [Aildenafil L-tartrate, L-tartrate (1:1) of 1-[4-ethoxy-3-[5-(6,7-dihydro-1-methyl-7-oxy-3-n-propyl-1H-pyrazolo[4,3-d]pyrimidine)]benzenesulfonyl]-cis-3,5-dimethylpiperazine], the “Relevant substances before sterilization” value [2] was “None”, the “Conclusion (sterilization stability)” value [2] was “No changes, stable” and the “Relevant substances after sterilization” value [2] was “no impurities were found and None”. For the same compound, the “Relevant substances after sterilization” value ([2]; listed as L-tartrate) was “no impurities are produced”, the “time to dissolve to be clear in water by hand shaking” value [3] was 15 s and the solubility ([3]; thermodynamic from solid, room temperature, read-out: Saturated Solubility in water at room temperature) was ~50 mg/mL. The “2 mg/ml pH value” [1] was 3.59 and the “10 mg/ml pH value” [1] was 3.56.

For CCCc1nn(C)c2c(=O)[nH]c(-c3cc(S(=O)(=O)N4C[C@@H](C)N[C@@H](C)C4)ccc3OCC)nc12 [Aildenafil DL-tartrate], the “2 mg/ml pH value” [1] was 3.90 and the “10 mg/ml pH value” [1] was 3.57.

For CN1CC(=O)N2[C@H](c3ccc4c(c3)OCO4)c3[nH]c4ccccc4c3C[C@@H]2C1=O [Tadalafil], the “Improvement rate % of cerebral infarction range” value (“Improvement rate %” below) ([4]; versus model control group) was 14.2% and the “Total cerebral infarction %” value ([4]; x ± s, n = 20) was 21.3 ± 6.5%.

For CCCc1nn(C)c2c(=O)[nH]c(-c3cc(S(=O)(=O)N4C[C@@H](C)N[C@@H](C)C4)ccc3OCC)nc12 [Aildenafil citrate], the “Relevant substances before sterilization” value [2] was “None”, the “Conclusion (sterilization stability)” value [2] was “No changes, stable” and the “Relevant substances after sterilization” value [2] was “no impurities were found and None”. For the same compound, the “Total cerebral infarction %” value ([5]; 14 days after administration, x ± s, n = 10) was 17.6 ± 7.7 %, the “Improvement rate %” value ([5]; 14 days, versus model control group) was 29.6% and the “2 mg/ml pH value” [1] was 4.11. The “10 mg/ml pH value” [1] was “Insoluble”, the “behavioral score, 3 days after medication” value ([6]; 3 days after medication) was 6.9 ± 1.5 and the “behavioral score, 7 days after medication” value ([6]; 7 days after medication) was 5.5 ± 1.1. For the same compound, the “behavioral score, 14 days after medication” value ([6]; 14 days after medication) was 4.3 ± 1.3 and the “behavioral score, Before medication” value ([6]; before medication) was 9.7 ± 0.5.

In the case of CCCc1nn(C)c2c(=O)[nH]c(-c3cc(S(=O)(=O)N4C[C@@H](C)N[C@@H](C)C4)ccc3OCC)nc12 [Aildenafil phosphate], the “Relevant substances before sterilization” value [2] is reported as “None”, the “Conclusion (sterilization stability)” value [2] is reported as “No changes, stable” and the “Relevant substances after sterilization” value [2] is reported as “no impurities were found and no impurities are produced and None”. The “time to dissolve to be clear in water by hand shaking” value [3] was 15 s, the “2 mg/ml pH value” [1] was 5.47 and the “10 mg/ml pH value” [1] was 5.38. The “Forelimb left (%), 7 days after medication” value ([7]; 5 mg/kg iv qd 7 d) was 18.57 ± 18.64%, the “Forelimb left (%), 14 days after medication” value ([7]; 5 mg/kg iv qd 7 d) was 37.14 ± 30.39 % and the “Forelimb right (%), 7 days after medication” value ([7]; 5 mg/kg iv qd 7 d) was 100 ± 0%. For the same compound, the “Forelimb right (%), 14 days after medication” value ([7]; 5 mg/kg iv qd 7 d) was 100 ± 0%, the “Forelimb left (%), 7 days after medication” value ([7]; 10 mg/kg iv qd 7 d) was 14.29 ± 18.13% and the “Forelimb left (%), 14 days after medication” value ([7]; 10 mg/kg iv qd 7 d) was 38.57 ± 28.54 %. For the same compound, the “Forelimb right (%), 7 days after medication” value ([7]; 10 mg/kg iv qd 7 d) was 100 ± 0%, the “Forelimb right (%), 14 days after medication” value ([7]; 10 mg/kg iv qd 7 d) was 100 ± 0% and the “balance beam, 7 days after medication” value [8, 10] was 2.14 ± 0.9 min. The “balance beam, 14 days after medication” value [8, 10] was 4.29 ± 1.38 min, the “balance beam, 7 days after medication” value ([8]; 10 mg/kg iv qd 7 d (high dose)) was 2.71 ± 1.25 min and the “balance beam, 14 days after medication” value ([8]; 10 mg/kg iv qd 7 d (high dose)) was 4.29 ± 1.60 min. For the same compound, the “Improvement rate %” value ([9]; 5 mg/kg iv qd 7 d) was 46.5%, the “Infarct size (%)” value ([9]; 5 mg/kg iv qd 7 d) was 13.13 ± 4.12 % and the “Improvement rate %” value ([9]; 10 mg/kg iv qd 7 d) was 43.4%. For the same compound, the “Infarct size (%)” value ([9]; 10 mg/kg iv qd 7 d) was 13.90 ± 4.70 %.
